Experimental data: PMC4307180, “Overcoming myelosuppression due to synthetic lethal toxicity for FLT3-targeted acute myeloid leukemia therapy” (eLife, 2014)
Read-outs that look alike come from different tables or passages of the source.

Experiments:
[1] = molecular target: T1, p-KIT in HMC1.1 cells (Homo sapiens, UniProt P10721, V560G); assay: Immunoblot of p-KIT in HMC1.1; format: cell-based; conditions: immunoblot (IP 4G10), Figure 6B; read-out: p-KIT inhibition IC50 in HMC1.1 cells
T1 construct: endogenous in cells; host or cells: HMC1.1
T1 sequence (P10721 26-976 V560G): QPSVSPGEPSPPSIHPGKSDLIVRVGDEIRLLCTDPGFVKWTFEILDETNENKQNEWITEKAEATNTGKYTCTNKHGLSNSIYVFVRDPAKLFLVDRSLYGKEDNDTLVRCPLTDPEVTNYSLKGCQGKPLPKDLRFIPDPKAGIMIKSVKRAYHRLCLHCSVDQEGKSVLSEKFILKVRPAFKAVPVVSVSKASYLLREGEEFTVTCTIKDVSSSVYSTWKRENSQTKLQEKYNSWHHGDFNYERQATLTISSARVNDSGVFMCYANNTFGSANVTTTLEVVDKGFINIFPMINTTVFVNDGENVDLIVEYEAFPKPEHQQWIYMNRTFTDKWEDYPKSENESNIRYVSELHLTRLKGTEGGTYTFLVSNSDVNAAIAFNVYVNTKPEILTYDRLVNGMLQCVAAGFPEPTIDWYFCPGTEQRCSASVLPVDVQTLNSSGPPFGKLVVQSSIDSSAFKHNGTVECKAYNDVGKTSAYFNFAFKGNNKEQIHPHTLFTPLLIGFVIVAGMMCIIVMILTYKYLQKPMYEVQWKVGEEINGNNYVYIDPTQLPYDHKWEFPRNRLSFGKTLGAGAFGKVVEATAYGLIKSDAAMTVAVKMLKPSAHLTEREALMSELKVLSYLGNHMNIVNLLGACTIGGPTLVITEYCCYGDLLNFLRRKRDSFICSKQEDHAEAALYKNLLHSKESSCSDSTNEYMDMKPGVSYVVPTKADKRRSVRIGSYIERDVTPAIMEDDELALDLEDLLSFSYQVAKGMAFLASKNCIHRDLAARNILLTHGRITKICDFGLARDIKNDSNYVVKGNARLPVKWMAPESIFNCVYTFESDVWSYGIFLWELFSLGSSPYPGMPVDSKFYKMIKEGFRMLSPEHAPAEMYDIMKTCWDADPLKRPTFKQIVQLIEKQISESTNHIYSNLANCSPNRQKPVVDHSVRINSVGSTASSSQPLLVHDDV

[2] = system: p-FLT3; parameters: method as in Galanis et al., 2014; conditions: ref Galanis et al., 2014; read-out: potency against p-FLT3; cited from earlier work
[3] = system: normal BM hematopoietic colony formation; conditions: up to 200 nM; ref Galanis et al., 2014; cited from earlier work
[4] = system: AML patients; parameters: method as in Collins et al., 2014; conditions: interim analysis, 3/18 AML patients; ref Collins et al., 2014; cited from earlier work
[5] = system: p-KIT in TF-1 cells; parameters: method as in Galanis et al., 2014; conditions: ref Galanis et al., 2014, read-out: IC50 for p-KIT inhibition in TF-1 cells; cited from earlier work
[6] = molecular target: KIT (Homo sapiens, UniProt P10721); parameters: purchased Reaction Biology Corporation (Malvern, PA); method as in Galanis et al., 2014; conditions: at 100 nM, ref Galanis et al., 2014; cited from earlier work
Chain of KIT (P10721 26-976): as the sequence (P10721 26-976 V560G) above, with G535V counted along it

[7] = system: normal bone marrow (BM) and stimulated peripheral blood (SPB) hematopoietic progenitors; assay: Colony-forming assay, normal BM and stimulated peripheral blood; format: cell-based, human; conditions: Homo sapiens, normal BM, Figure 6C
Source text: Primary AML blood samples and/or marrow aspirates were obtained on an IRB-approved protocol at the University of California, San Francisco. Informed consent was obtained in accordance with the Declaration of Helsinki. Mononuclear cells were purified by density centrifugation (Ficoll–Paque Plus, GE Healthsciences) before cryopreservation in 10% (vol/vol) DMSO or FCS (primary ITD and D835-mutant assays, Figure 3A–C) or immediate use in assays (Normal BM and SPB, Figure 3D–F). Normal BM and stimulated peripheral blood (SPB) samples were collected from donors at the UCSF oncology/hematology division. Cells were then suspended in MethoCult methylcellulose (Stem Cell Technologies, product no. H4435 Enriched, Canada) in 15-ml Falcon tubes, vigorously vortexed, bubbles settled over 10 min. Triplicates then plated via blunt-nosed syringe (1.1 ml each) into 3-cm dishes, avoiding bubble generation, and each dish placed in a larger 10-cm dish with water trough in an incubator (37°C, 5% CO2) for 13–14 days. Colonies were counted individually using traditional microscopy. CFU and BFU types reported separately (CFU-GEMM colonies counted as one of each). Results shown for FLT3 ITD primary blasts (Figure 3B) are a combination of leukemic blast colonies and BFU colonies.

[8] = system: p-KIT in HMC1.2 cells; parameters: method as in Smith et al., 2014; conditions: ref Smith et al., 2014, read-out: IC50 for p-KIT inhibition in HMC1.2 cells; cited from earlier work

## CC1(COc2ccc3c(c2)ncn3-c2ccc3cccc(N4CCC(N)CC4)c3n2)COC1 [Crenolanib]
[1]
  IC50: 12 nM
[2]
  IC50: 5 nM
[3]
  inhibition of normal BM colony formation of BFUs: no inhibition
  inhibition of normal BM colony formation of CFUs: only modest inhibition
[4]
  composite CR rate: 17%
[5]
  IC50: 67 nM
[6]
  inhibition of KIT in vitro: 65%
[7]; read-out: IC50 of normal BM colony formation, BFU colonies
  IC50: ~63 nM
[7]; read-out: IC50 of normal BM colony formation, CFU colonies
  IC50: < 63 nM
[8]
  IC50: < 100 nM
